Data: US8431525B2, “Coelenteramide analogs” (JNC Corporation, priority 2009, dated 2013)

Experiments:
[1] = Fluorescence spectrum and fluorescence quantum yield of CTMD analogs at 750 nM (Example 1); assay type: physicochemical; conditions: for Fluorescence quantum yield (PB) / λmax (PB)/nm: 67 mM phosphate buffer pH 7.4, 750 nM; for Fluorescence quantum yield (PB) / λmax (PB)/nm / λmax (MeOH)/nm / Fluorescence quantum yield (MeOH): 25° C., excited at 330 nm; for Fluorescence quantum yield (PB) / Fluorescence quantum yield (MeOH): relative to quinine sulfate 0.55; for λmax (PB)/nm / λmax (MeOH)/nm: fluorescence emission; for λmax (MeOH)/nm / Fluorescence quantum yield (MeOH): methanol; for λmax (MeOH)/nm / Fluorescence quantum yield (MeOH) / fluorescence spectrum detected: 750 nM; for fluorescence properties compared with known CTMD (c-4) or h-CTMD (c-13): from TABLE 1
Description: (§1) The fluorescence quantum yield of each CTMD analog synthesized was determined by the following procedure. The fluorescence spectrum was measured at 25° C. using a spectrofluorometer FP-6500 of JASCO (JASCO Corp., Tokyo). Specifically, the CTMD analog was dissolved in methanol (MeOH) or in 67 mM phosphate buffer (PB) (pH 7.4) at a final concentration of 750 nM using a quartz cell (light path length of 10 mm). Measurement was performed 3 times at the excited wavelength of 330 nm, emission/excitation band width of 3 nm, response of 0.5 second and scanning rate of 100 nm/min. The average was taken as the fluorescence spectrum of the compound. The fluorescence quantum yield was determined after the spectrum was corrected.
Quinine sulfate was used as a standard for determining the fluorescence quantum yield. After quinine sulfate (Wako Pure Chemical Industries) was dissolved in 0.1N sulfuric acid aqueous solution, measurement was performed at the excitation light of 366 nm under the conditions for fluorescence measurements described above. The relative fluorescence quantum yield (fluorescence intensity) of the compound was calculated relative to the quantum yield of quinine sulfate as being 0.55.

[2] = Fluorescence spectra at a final concentration of 30 μM (Example 2); assay type: physicochemical; conditions: excited at 330 nm; for Fluorescence Intensity (MeOH) / λmax (MeOH)/nm: methanol, 30 μM; for Fluorescence Intensity (PB) / λmax (PB)/nm: phosphate buffer pH 7.4, 30 μM
Description: as §1
The fluorescence quantum yield determined in EXAMPLE 1 was estimated by measuring the fluorescence spectra when the final concentration of coelenteramide analogs was 750 nM. When the final concentration was 750 nM as in EXAMPLE 1, any fluorescence spectrum was not detected for c-14, c-31 and c-36 both in methanol and in a phosphate buffer, and not detected for c-25 in a phosphate buffer, in coelenteramide analogs of the present invention (n.d.: not detected). With respect to c-14, c-31, c-25 and c-36 that no fluorescence spectrum was detected, fluorescence spectra were measured under the same conditions as in EXAMPLE 1 except that the final concentration of these coelenteramide analogs was 30 μM. In a similar method, the fluorescence spectrum for C-4 was also measured at a final concentration of 30 μM. The fluorescence spectrum also for […] was measured in 50 mM Tris-HCl (pH 7.6) containing 10 mM CaCl2 under the same conditions as in EXAMPLE 1 except that the final concentration was 18 μM.

[3] = both in methanol and in a phosphate buffer

SMILES | Fluorescence Intensity (MeOH) [2] | λmax (MeOH)/nm [2] | Fluorescence Intensity (PB) [2] | λmax (PB)/nm [2] | fluorescence spectrum detected [1, 3] | fluorescence properties compared with known CTMD (c-4) or h-CTMD (c-13) [1] | fluorescence spectrum detected ([1]; in a phosphate buffer) | Fluorescence quantum yield (PB) [1] | λmax (PB)/nm [1] | λmax (MeOH)/nm [1] | Fluorescence quantum yield (MeOH) [1] | melting point
CC(=O)Oc1ccc(CC(=O)Nc2ncc(-c3ccc(OC(C)=O)cc3)nc2Cc2ccccc2)cc1 [c-29, 5-(4-Acetoxyphenyl)-2-(4-acetoxyphenyl)acetylamino-3-benzylpyrazine] | – | – | – | – | – | – | – | 0.029 | 386.5 nm | 376.5 nm | 0.086 | 225 to 227 °C
CC(=O)Oc1ccc(-c2cnc(NC(=O)Cc3ccccc3)c(Cc3ccccc3)n2)cc1 [c-30, 5-(4-Acetoxyphenyl)-3-benzyl-2-(phenylacetylamino)pyrazine] | – | – | – | – | – | – | – | 0.040 | 391 nm | 373.5 nm | 0.008 | 228 to 231 °C
CC(=O)Oc1ccc(-c2cnc(NC(=S)Cc3ccccc3)c(Cc3ccccc3)n2)cc1 [c-31, 5-(4-Acetoxyphenyl)-3-benzyl-2-(phenylthioacetylamino)pyrazine] | 5.2 | 422.0 nm | 1.7 | 413.5 nm | not detected | different fluorescence properties | – | – | – | – | – | 143 to 145 °C
CC(=O)Oc1ccc(-c2cnc(NS(=O)(=O)Cc3ccccc3)c(Cc3ccccc3)n2)cc1 [c-32, 5-(4-Acetoxyphenyl)-3-benzyl-2-(benzylsulfonylamino)pyrazine] | – | – | – | – | – | different fluorescence properties | – | 0.239 | 420 nm | 404 nm | 0.234 | 240 to 241 °C
CC(=O)Nc1ncc(-c2ccc(OC(C)=O)cc2)nc1Cc1ccccc1 [c-33, 5-(4-Acetoxyphenyl)-2-acetylamino-3-benzylpyrazine] | – | – | – | – | – | – | – | 0.154 | 384 nm | 375 nm | 0.085 | 215.5 to 217 °C (dec.)
CC(=O)Oc1ccc(-c2cnc(N(S(C)(=O)=O)S(C)(=O)=O)c(Cc3ccccc3)n2)cc1 [c-39, 5-(4-Acetoxyphenyl)-3-benzyl-2-bis(methanesulfonyl)aminopyrazine] | – | – | – | – | – | different fluorescence properties | – | 0.096 | 419 nm | 381.5 nm | 0.079 | 165.5 to 167 °C
CC(=O)Oc1ccc(-c2cnc(N(S(=O)(=O)c3ccc([N+](=O)[O-])cc3)S(=O)(=O)c3ccc([N+](=O)[O-])cc3)c(Cc3ccccc3)n2)cc1 [c-40, 5-(4-Acetoxyphenyl)-3-benzyl-2-bis(4-nitrophenylsulfonyl)aminopyrazine] | – | – | – | – | – | different fluorescence properties | – | 0.021 | 415 nm | 407.5 nm | 0.004 | 227 to 229.5 °C (dec.)

More lines, main results first:

Fluorescence Intensity (MeOH) [2] | λmax (MeOH)/nm [2] | Fluorescence Intensity (PB) [2] | λmax (PB)/nm [2] | fluorescence spectrum detected [1, 3] | fluorescence properties compared with known CTMD (c-4) or h-CTMD (c-13) [1] | fluorescence spectrum detected ([1]; in a phosphate buffer) | SMILES | Fluorescence quantum yield (PB) [1] | λmax (PB)/nm [1] | λmax (MeOH)/nm [1] | Fluorescence quantum yield (MeOH) [1] | melting point
80.0 | 428.0 nm | 1.7 | 444.5 nm | – | – | – | O=C(Cc1ccc(O)cc1)Nc1ncc(-c2ccc(O)cc2)nc1Cc1ccccc1 [c-4, 3-benzyl-5-(4-hydroxyphenyl)-2-[(4-hydroxyphenyl)acetylamino]pyrazine, reference compound] | 0.001 | 451 nm | 427.5 nm | 0.012 | –
6.5 | 428.0 nm | 1.4 | 435.5 nm | not detected | different fluorescence properties | – | Oc1ccc(-c2cnc(NC(=S)Cc3ccccc3)c(Cc3ccccc3)n2)cc1 [c-14, 3-Benzyl-5-(4-hydroxyphenyl)-2-(phenylthioacetylamino)pyrazine] | – | – | – | – | 195 to 198 °C
– | – | – | – | – | different fluorescence properties | – | COc1ccc(-c2cnc(N(S(=O)(=O)Cc3ccccc3)S(=O)(=O)Cc3ccccc3)c(Cc3ccccc3)n2)cc1 [c-21, 3-Benzyl-2-bis(benzylsulfonyl)amino-5-(4-methoxyphenyl)pyrazine] | 0.059 | 421.5 nm | 417 nm | 0.303 | 78 to 80 °C
– | – | 2.0 | 446.0 nm | – | – | not detected | CC(=O)Nc1ncc(-c2ccc(O)cc2)nc1Cc1ccccc1 [c-25, 2-Acetylamino-3-benzyl-5-(4-hydroxyphenyl)pyrazine] | – | 446.5 nm | 425.5 nm | 0.009 | –
– | – | – | – | – | different fluorescence properties | – | Cc1ccc(S(=O)(=O)Nc2ncc(-c3ccc(O)cc3)nc2Cc2ccccc2)cc1 [c-35, 3-Benzyl-5-(4-hydroxyphenyl)-2-[(4-methylphenyl)sulfonylamino]pyrazine] | 0.107 | 435 nm | 430.5 nm | 0.069 | 181 to 182.5 °C
3.6 | 433.0 nm | 0.8 | 433.5 nm | not detected | different fluorescence properties | – | O=[N+]([O-])c1ccc(S(=O)(=O)Nc2ncc(-c3ccc(O)cc3)nc2Cc2ccccc2)cc1 [c-36, 3-Benzyl-5-(4-hydroxyphenyl)-2-[(4-nitrophenyl)sulfonylamino]pyrazine] | – | – | – | – | 176 to 177.5 °C (dec.)
– | – | – | – | – | different fluorescence properties | – | O=S(=O)(Cc1ccccc1)Nc1ncc(-c2ccccc2)nc1Cc1ccccc1 [c-37, 3-Benzyl-2-benzylsulfonylamino-5-phenylpyrazine] | 0.227 | 419.5 nm | 402.5 nm | 0.196 | 207 to 208.5 °C
– | – | – | – | – | different fluorescence properties | – | O=S(=O)(Cc1ccccc1)N(c1ncc(-c2ccccc2)nc1Cc1ccccc1)S(=O)(=O)Cc1ccccc1 [c-42, 3-Benzyl-2-bis(benzylsulfonyl)amino-5-phenylpyrazine] | 0.011 | 420.5 nm | 398.5 nm | 0.180 | 71.5 to 74.5 °C
